pIC50: −log10 of the molar value.
Tested on: esophageal, liver and breast cancer cell lines
Assay: not given
Settings: dose-dependent; Nguyen et al. J Biol Chem. 2015; cited from earlier work

SMILES | proliferation of several esophageal, liver and breast cancer cell lines
Cc1cn(CCN2CCN(c3ccccc3-c3cc(C#N)cc(C(=O)NCCCN4CCCC4)c3)CC2)c2ccccc12 [LLY-507] | inhibited the proliferation

Biological target: T1, SMYD2 (Homo sapiens, UniProt Q9NRG4)
T1 construct: Full length SMYD2 (NP_064582.2) was cloned; His6 (N, cleaved yes); FLAG (N); made in house; host or cells: Sf9 insect cells
Assay: SMYD2 biochemical assay (3H-SAM, biotinylated peptide substrate, Flashplate)
Settings: Table 1; average of n = 1 to n = 50; read-out: SMYD2 Biochem IC50
How it was run: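 Full-length His/FLAG-tagged SMYD2 (tag removed, Sf9-expressed) at 1.5 nM was preincubated with compound for 30 min at room temperature in Bicine pH 7.6 buffer with 2% DMSO. Reaction used 10 nM 3H-SAM and 60 nM biotinylated peptide, stopped with 600 uM cold SAM. Streptavidin-captured 3H-peptide counted; IC50 from 3- or 4-parameter fit.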

T1 sequence (Q9NRG4 whole entry): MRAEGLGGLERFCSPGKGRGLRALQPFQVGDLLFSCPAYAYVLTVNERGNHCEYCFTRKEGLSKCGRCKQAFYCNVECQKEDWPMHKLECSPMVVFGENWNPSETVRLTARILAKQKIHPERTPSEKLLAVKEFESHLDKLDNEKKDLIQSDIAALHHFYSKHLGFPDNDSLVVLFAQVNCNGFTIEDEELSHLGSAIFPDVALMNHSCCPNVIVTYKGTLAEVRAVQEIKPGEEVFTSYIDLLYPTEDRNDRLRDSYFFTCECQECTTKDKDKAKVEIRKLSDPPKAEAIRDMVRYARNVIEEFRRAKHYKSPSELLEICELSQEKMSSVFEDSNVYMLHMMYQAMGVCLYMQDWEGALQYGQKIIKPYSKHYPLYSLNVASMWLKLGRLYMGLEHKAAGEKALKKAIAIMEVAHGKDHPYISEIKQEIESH

SMILES | pIC50
C[C@H]1CN(C2CC2)C[C@H]1NC(=O)c1ccc2[nH]c(=O)oc2c1 (racemic) [compound 14, (±)-cis-N-(1-cyclopropyl-4-methylpyrrolidin-3-yl)-2-oxo-2,3-dihydrobenzo[d]oxazole-6-carboxamide] | < 4.30
C[C@H]1CN(C2CC2)C[C@@H]1NC(=O)Cc1ccc2c(c1)NC(=O)CO2 (racemic) [compound 3, (±)-trans-N-(1-cyclopropyl-4-methylpyrrolidin-3-yl)-2-(3-oxo-3,4-dihydro-2H-benzo[b][1,4]oxazin-6-yl)acetamide] | < 4.30
CC1Oc2ccc(C(=O)N[C@H]3CN(C4CC4)C[C@@H]3C)cc2NC1=O (mixture of isomers) [compound 7, (±)-trans-N-(1-cyclopropyl-4-methylpyrrolidin-3-yl)-2-methyl-3-oxo-3,4-dihydro-2H-benzo[b][1,4]oxazine-6-carboxamide] | < 4.30

Same assay, conditions: Table 3; average of n = 1 to n = 50; read-out: SMYD2 Biochem IC50

SMILES | pIC50
CC(C)N1C[C@H](C)[C@H](NC(=O)c2cc(C3CC3)ccn2)C1 (racemic) [compound 105, (±)-cis-4-cyclopropyl-N-[4-methyl-1-(propan-2-yl)pyrrolidin-3-yl]pyridine-2-carboxamide] | 6.16
CC(C)N1C[C@H](C)[C@H](NC(=O)c2cc(C3CC3)cnn2)C1 (stereo in doubt) [compound 98, rel-5-cyclopropyl-N-[(3S,4S)-4-methyl-1-(propan-2-yl)pyrrolidin-3-yl]pyridazine-3-carboxamide] | 5.68
CC(C)N1CCC(C(=O)Nc2cc(O)c3c(c2)OCC(=O)N3)C1 (stereo not drawn) [compound 87, N-(5-hydroxy-3-oxo-3,4-dihydro-2H-1,4-benzoxazin-7-yl)-1-(propan-2-yl)pyrrolidine-3-carboxamide] | < 4.30
CC(C)N1C[C@H](C)[C@H](NC(=O)CCN2CCCC2)C1 (racemic) [compound 56, (±)-cis-N-[4-methyl-1-(propan-2-yl)pyrrolidin-3-yl]-3-(pyrrolidin-1-yl)propanamide] | < 4.30
CC(C)N1C[C@H](C)[C@H](NC(=O)c2coc(C3CC3)n2)C1 (racemic) [compound 63, (±)-cis-2-cyclopropyl-N-[4-methyl-1-(propan-2-yl)pyrrolidin-3-yl]-1,3-oxazole-4-carboxamide] | < 4.30

Source: patent publication US20170247326A1, “Substituted Pyrrolidine Carboxamide Compounds” (EPIZYME, INC., priority 2014, published 2017)
